Measurements reported in US20130195886A1, “Methods for Fructanase and Fructokinase Inhibition” (The Regents of the University of Colorado, A Body Corporate, priority 2011, published 2013).

Legend:
KHKA = molecular target: T1, KHKA (Homo sapiens, UniProt P50053); assay: KHKA % inhibition of virtual-screen hits; details: for inhibition at 10 µM: read-out: KHKA % Inhibition (10 µM)
T1 sequence (P50053 1-298 isoform P50053-2): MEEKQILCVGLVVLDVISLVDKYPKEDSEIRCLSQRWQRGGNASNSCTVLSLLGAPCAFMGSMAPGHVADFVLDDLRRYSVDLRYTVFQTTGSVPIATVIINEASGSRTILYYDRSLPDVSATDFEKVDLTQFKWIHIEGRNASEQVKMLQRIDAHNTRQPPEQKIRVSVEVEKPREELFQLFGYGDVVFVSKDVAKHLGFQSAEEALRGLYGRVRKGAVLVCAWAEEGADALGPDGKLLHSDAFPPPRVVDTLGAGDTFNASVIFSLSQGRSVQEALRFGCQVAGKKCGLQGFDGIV

KHKC = molecular target: T2, KHKC (Homo sapiens, UniProt P50053); assay: KHKC % inhibition of virtual-screen hits; details: for KHKC % Inhibition (10 UM): 10 uM compound; for inhibition at 10 µM: read-out: KHKC % Inhibition (10 µM)
T2 sequence (P50053 1-298): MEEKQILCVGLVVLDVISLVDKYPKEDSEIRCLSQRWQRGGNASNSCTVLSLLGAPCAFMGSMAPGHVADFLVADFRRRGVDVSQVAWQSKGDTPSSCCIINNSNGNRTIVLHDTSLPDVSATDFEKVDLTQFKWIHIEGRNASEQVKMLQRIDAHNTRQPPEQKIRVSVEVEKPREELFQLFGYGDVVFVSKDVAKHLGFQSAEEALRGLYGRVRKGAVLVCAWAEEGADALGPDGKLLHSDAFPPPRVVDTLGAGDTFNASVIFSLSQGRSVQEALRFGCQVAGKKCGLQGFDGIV

wild type (WT) mice = assay: fructose feeding, duodenum quantitative real time PCR; assay type: in vivo; details: 15% fructose water 3 weeks, actin control
Protocol: In the first set of studies, three-month-old male wild type (WT) mice or fructokinase A/C knockout mice (KHK-A/C KO) (obtained from David Bonthron, Leeds, UK)(72) were administered fructose with normal chow for 3 weeks. […] Due to the different preference for fructose water between WT mice and KHK-A/C KO mice, mice were given 15% or 30% of fructose water, respectively. Both WT mice and KHK-A/C KO mice drank the same amount of fructose (FIG. 4A). For each group, the duodenum was removed after 20 hours of fasting of normal chow and the lining scraped and RNA extracted. Quantitative real time PCR was performed for fructokinase C (KHK-C, FIG. 4B), and tight junction genes occludin (FIG. 4C) and ZO-1 (FIG. 4D) using actin as an internal control.

[1] = system: allergy-susceptible mice (lacking the toll-like receptor 4); assay: Experiment 1: peanut food allergy sensitisation and challenge; assay type: in vivo; details: fructose 30% in water added to peanuts plus cholera toxin
mice = assay type: in vivo; details: fructose (30%) vs no fructose, p<0.02 Mann Whitney
[2] = system: human intestinal epithelial cells (CaCo-2); assay: fructose exposure of intestinal epithelial cells, polarity and tight junction expression; assay type: cell-based

Which “KHKA % Inhibition (10 UM)” value (KHKA; 10 uM compound) does the source give for `CSc1nn(-c2ccccc2)cc1/C(N)=N/OC(=O)Nc1ccc(OC(F)(F)F)cc1` [Cpd 1] here?
The value was 7.0%.

And the inhibition at 10 µM (KHKA)?
Its inhibition at 10 µM is 7%.

And the “KHKC % Inhibition (10 UM)” value (KHKC)?
The value was 25.6%.

And the inhibition at 10 µM (KHKC)?
Its inhibition at 10 µM is 25.6%.

Which “KHKA % Inhibition (100 uM)” value (KHKA; 100 uM compound) does the source give for `CSc1nn(-c2ccccc2)c(N)c1C#N` [Cpd 2] here?
Its value is 29.4%.

And the inhibition at 10 µM (KHKA)?
The inhibition at 10 µM was 5.7%.

What about the inhibition at 100 µM (KHKA; read-out: KHKA % Inhibition (100 uM)) of the same molecule?
The inhibition at 100 µM was 29.4%.

What about the “KHKC % Inhibition (100 uM)” value (KHKC; 100 uM compound) of the same molecule?
The value was 16.8%.

And the inhibition at 10 µM (KHKC)?
The inhibition at 10 µM was 7.8%.

What about the inhibition at 100 µM (KHKC; read-out: KHKC % Inhibition (100 uM)) of the same molecule?
Its inhibition at 100 µM is 16.8%.

Which results are given for `CSc1nn(-c2ccccc2)cc1-c1nc(-c2ccccc2)cs1` [Cpd 3]?
KHKC % Inhibition (10 UM) (KHKC): 19.9%; inhibition at 10 µM (KHKC): 19.9%

How did the “KHK mRNA expression” value (wild type (WT) mice) turn out when `O=C(CO)[C@@H](O)[C@H](O)[C@H](O)CO` [fructose] was run?
Its value is “upregulation”.

What about the “ZO-1 mRNA” value (wild type (WT) mice) of the same molecule?
Its value is “significant decrease”.

What about the “occludin mRNA” value (wild type (WT) mice) of the same molecule?
Its value is “significant decrease”.

And the “fall in temperature, group 3 compared to group 1” value [1]?
Its value is “greater fall in temperature”.

What about the “symptoms, group 3 compared to group 1” value [1] of the same molecule?
Its value is “numerically worse symptoms”.

What about the “peanut IgE levels” value (mice) of the same molecule?
The value was “higher”.

And the “expression of genes involved in the maintenance of cell polarity” value ([2]; 5 mM fructose)?
The value was “markedly decreased”.

And the “expression of transmembrane (claudin-4) and scaffolding (ZO-1 and occluding) proteins at the tight junctions” value ([2]; fructose exposure)?
The value was “substantially down-regulated”.

What about the “localisation of polarity/tight junction proteins (confocal analysis)” value ([2]; fructose exposure) of the same molecule?
Its value is “translocates them intracellularly from the basolateral membrane domain”.

And the expression of e-cadherin ([2]; fructose for 96 hours)?
Its expression of e-cadherin is “dramatically down-regulated”.
